In BindingDB's records for doi:10.1016/j.bmcl.2013.08.079 (Saint John'S University, 2013):

Target: Low molecular weight phosphotyrosine protein phosphatase (Homo sapiens) (UniProt P24666)
Assay: Noncompetitive inhibition of human GST-tagged LMW-PTP-B expressed in Escherichia coli JM 109 cells using p-nitrophenyl phosphate as substrate after 15 mins by microplate reader analysis

Low molecular weight phosphotyrosine protein phosphatase (Homo sapiens), sequence (P24666 whole entry, looked up): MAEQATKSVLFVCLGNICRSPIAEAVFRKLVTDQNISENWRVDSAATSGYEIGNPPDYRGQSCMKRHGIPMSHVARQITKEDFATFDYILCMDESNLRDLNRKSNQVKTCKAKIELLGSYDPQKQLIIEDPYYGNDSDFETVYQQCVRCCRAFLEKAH

Ki [µM]	SMILES
26	O=C(O)c1nc2nc(Cl)c(Cl)nc2[nH]1
73.2	CC(=O)Nc1c(C)cc(OCC(=O)O)cc1C
